Pest or weed control and Herbicidal activity data for seven molecules are collected here from patent publication US10023590B2, “Substituted pyridine compounds having herbicidal activity” (BASF SE, priority 2014, dated 2018).

Molecules are shown by their SMILES.

Common to all, as to type: in vivo
The test system of data set [1] is Abutilon theophrasti. Nature of the data set: Greenhouse post-emergence herbicidal activity, ABUTH. Particulars: ABUTH; for pest or weed control at 2000 g/ha: 2 kg/ha, scale 0 to 100, read-out: Herbicidal activity. The text has this: (§1) The culture containers used were plastic flowerpots containing loamy sand with approximately 3.0% of humus as the substrate. The seeds of the test plants were sown separately for each species.
(§2) For the post-emergence treatment, the test plants were first grown to a height of 3 to 15 cm, depending on the plant habit, and only then treated with the active ingredients which had been suspended or emulsified in water. For this purpose, the test plants were either sown directly and grown in the same containers, or they were first grown separately as seedlings and transplanted into the test containers a few days prior to treatment.
(§3) Depending on the species, the plants were kept at 10-25° C. or 20-35° C., respectively.
(§4) The test period extended over 2 to 4 weeks. During this time, the plants were tended, and their response to the individual treatments was evaluated.
(§5) Evaluation was carried out using a scale from 0 to 100. 100 means no emergence of the plants, or complete destruction of at least the aerial moieties, and 0 means no damage, or normal course of growth. A good herbicidal activity is given at values of at least 70 and a very good herbicidal activity is given at values of at least 85.

In data set [2] the test system is Amaranthus retroflexus. Nature of the data set: Greenhouse post-emergence herbicidal activity, AMARE. The following applies: AMARE; for pest or weed control at 2000 g/ha: 2 kg/ha, scale 0 to 100, read-out: Herbicidal activity.
Text: as §1, §2, §3, §4, §5

Data set [3] relates to Chenopodium album. Nature of the data set: Greenhouse post-emergence herbicidal activity, CHEAL.
Text: as §1, §2, §3, §4, §5

The subject of data set [4] is Oryza sativa. Nature of the data set: Greenhouse post-emergence herbicidal activity on crop ORYSA (rice).
Text: as §1, §2, §3, §4, §5

The subject of data set [5] is Setaria viridis. Nature of the data set: Greenhouse post-emergence herbicidal activity, SETVI.
Text: as §1, §2, §3, §4, §5

Data set [6] has as its system Zea mays. Nature of the data set: Greenhouse post-emergence herbicidal activity on crop ZEAMX (corn, maize). Also noted: key: 0 = no damage/normal growth, 100 = no emergence or complete destruction.
Text: as §1, §2, §3, §4, §5

For data set [7], the system named is Capsella bursa-pastoris. Nature of the data set: Greenhouse post-emergence herbicidal activity, CAPBP. Particulars: 0.063 kg/ha, scale 0 to 100.
Text: as §1, §2, §3, §4, §5

Data set [8] deals with Cirsium arvense. Nature of the data set: Greenhouse post-emergence herbicidal activity, CIRAR. Particulars: CIRAR, 0.063 kg/ha, scale 0 to 100, read-out: Herbicidal activity.
Text: as §1, §2, §3, §4, §5

The test system of data set [9] is Echinocloa crus-galli. Nature of the data set: Greenhouse post-emergence herbicidal activity, ECHCG. The following applies: Echinochloa crus-galli, ECHCG.
Text: as §1, §2, §3, §4, §5

The subject of data set [10] is Eriochloa villosa. Nature of the data set: Greenhouse post-emergence herbicidal activity, ERBVI. The following applies: 0.031 kg/ha, scale 0 to 100.
Text: as §1, §2, §3, §4, §5

The test system of data set [11] is Setaria faberi. Nature of the data set: Greenhouse post-emergence herbicidal activity, SETFA. The following applies: 0.25 kg/ha, scale 0 to 100.
Text: as §1, §2, §3, §4, §5

Data set [12] deals with Stellaria media. Nature of the data set: Greenhouse post-emergence herbicidal activity, STEME.
Text: as §1, §2, §3, §4, §5

[13] abbreviates: ORYSA (rice, crop), 0.031 kg/ha, scale 0 to 100.
Setting [14] is: ORYSA (rice, crop), 0.063 kg/ha, scale 0 to 100.
[15] abbreviates: ORYSA (rice, crop), 0.125 kg/ha, scale 0 to 100.
[16] abbreviates: ZEAMX (corn, crop), 0.125 kg/ha, scale 0 to 100.
Where [17] appears, read: ZEAMX (corn, crop), 0.063 kg/ha, scale 0 to 100.
The mark [18] stands for this setting: ZEAMX (corn, crop), 0.031 kg/ha, scale 0 to 100.
Where [19] appears, read: crop ZEAMX (corn, maize), application rate 0.031 kg/ha.

Take `CC(C)N(c1c(Cl)ccc(C2=C(O)c3ncccc3CS2(=O)=O)c1Cl)S(C)(=O)=O` [I-10, N-[2,6-dichloro-3-(8-hydroxy-6,6-dioxo-5H-thiopyrano[4,3-b]pyridin-7-yl)phenyl]-N-isopropyl-methanesulfonamide]: the pest or weed control at 2000 g/ha is 98% in data set [1] and 100% in data set [2]. Moreover, the pest or weed control at 125 g/ha in [2] (0.125 kg/ha, scale 0 to 100) was found to be 70%; in data set [3] (0.125 kg/ha, scale 0 to 100) it was 90%. The molecule also came in with a pest or weed control at 31 g/ha in [3] (0.031 kg/ha, scale 0 to 100) of 85%. The pest or weed control at 63 g/ha in data set [3] (0.063 kg/ha, scale 0 to 100) was found to be 85%. Also, the Herbicidal activity in [4] (setting [13]) amounted to 10; in data set [4] (setting [14]) it was 10; in data set [4] (setting [15]), 15; in data set [5] (2 kg/ha, scale 0 to 100), 98; in data set [6] (setting [16]) it was 10.

For `CCS(=O)(=O)N(C)c1c(Cl)ccc(C2=C(O)c3ncccc3C(C)(C)S2(=O)=O)c1Cl` [I-19, N-[2,6-dichloro-3-(8-hydroxy-5,5-dimethyl-6,6-dioxo-thiopyrano[4,3-b]pyridin-7-yl)phenyl]-N-methyl-ethanesulfonamide], the pest or weed control at 2000 g/ha in data set [1] came to 98%; in data set [2], 100%. Moreover, the pest or weed control at 31 g/ha is 98% in data set [2] (0.031 kg/ha, scale 0 to 100); 98% in data set [3] (0.031 kg/ha, scale 0 to 100); 98% in data set [9] (0.031 kg/ha, scale 0 to 100). The pest or weed control at 63 g/ha in data set [2] (0.063 kg/ha, scale 0 to 100) amounted to 100%; in [8] it was 100%. In addition, the pest or weed control at 125 g/ha in data set [2] (0.125 kg/ha, scale 0 to 100) turned out to be 100%; in [3] (0.125 kg/ha, scale 0 to 100), 100%; in data set [9] (0.125 kg/ha, scale 0 to 100) it was 100%. The Herbicidal activity is 100 in data set [7]; 100 in data set [5] (2 kg/ha, scale 0 to 100); 0 in [6] (setting [17]).

As for `CN(C)S(=O)(=O)Oc1c(Cl)ccc(C2=C(O)c3ncccc3CS2(=O)=O)c1Cl` [I-22], the pest or weed control at 63 g/ha in data set [2] (0.063 kg/ha, scale 0 to 100) was determined as 70%; in data set [3] (0.063 kg/ha, scale 0 to 100), 95%; in [9] (0.063 kg/ha, scale 0 to 100), 90%. Also, the pest or weed control at 125 g/ha is 75% in data set [2] (0.125 kg/ha, scale 0 to 100); 100% in data set [3] (0.125 kg/ha, scale 0 to 100); 95% in [9] (0.125 kg/ha, scale 0 to 100). The pest or weed control at 2000 g/ha is 100% in [2] and 100% in [9] (2 kg/ha, scale 0 to 100, read-out: Herbicidal activity). For the same molecule, the pest or weed control at 31 g/ha in data set [9] (0.031 kg/ha, scale 0 to 100) came out at 80%. The Herbicidal activity in data set [4] (setting [13]) is 30; in [4] (setting [14]), 35; in [4] (setting [15]), 40; in [5] (2 kg/ha, scale 0 to 100) it was 98; in data set [6] (setting [18]) it was 0; in data set [6] (setting [17]), 0. This molecule also showed a Herbicidal activity in [6] (setting [16]) of 15.

On to `CN(c1c(Cl)ccc(C2=C(O)c3ncccc3C(C)(C)S2(=O)=O)c1Cl)S(=O)(=O)C1CC1` [I-28, N-[2,6-dichloro-3-(8-hydroxy-5,5-dimethyl-6,6-dioxo-thiopyrano[4,3-b]pyridin-7-yl)phenyl]-N-methyl-cyclopropanesulfonamide], for which the pest or weed control at 31 g/ha in data set [2] (0.031 kg/ha, scale 0 to 100) was 98%; in data set [3] (0.031 kg/ha, scale 0 to 100) it was 98%. Also, the pest or weed control at 63 g/ha in data set [2] (0.063 kg/ha, scale 0 to 100) amounted to 98%; in data set [3] (0.063 kg/ha, scale 0 to 100), 98%; in data set [9] (0.063 kg/ha, scale 0 to 100), 98%. For the same molecule, the pest or weed control at 125 g/ha in [2] (0.125 kg/ha, scale 0 to 100) was 98%; in [3] (0.125 kg/ha, scale 0 to 100) it was 98%; in data set [9] (0.125 kg/ha, scale 0 to 100) it was 100%. The pest or weed control at 250 g/ha was 98% in data set [2] (0.25 kg/ha, scale 0 to 100) and 100% in data set [9] (0.25 kg/ha, scale 0 to 100). For the same molecule, the Herbicidal activity in data set [10] is recorded as 95; in data set [11], 100; in data set [6] (setting [18]), 20; in [6] (setting [17]), 30.

As to `Cc1c(C2=C(O)c3ncccc3C(C)(C)S2(=O)=O)ccc(Cl)c1N(C)S(C)(=O)=O` [I-29, N-[6-chloro-3-(8-hydroxy-5,5-dimethyl-6,6-dioxo-thiopyrano[4,3-b]pyridin-7-yl)-2-methyl-phenyl]-N-methyl-methanesulfonamide], the pest or weed control at 31 g/ha turned out to be 95% in [2] (0.031 kg/ha, scale 0 to 100); 98% in [3] (0.031 kg/ha, scale 0 to 100); 85% in data set [9] (0.031 kg/ha, scale 0 to 100). Also, the pest or weed control at 63 g/ha in [2] (0.063 kg/ha, scale 0 to 100) was determined as 95%; in [3] (0.063 kg/ha, scale 0 to 100), 98%; in [9] (0.063 kg/ha, scale 0 to 100), 90%. Also, the pest or weed control at 125 g/ha in data set [2] (0.125 kg/ha, scale 0 to 100) was determined as 98%; in [3] (0.125 kg/ha, scale 0 to 100), 98%; in [9] (0.125 kg/ha, scale 0 to 100) it was 95%. Further, the pest or weed control at 250 g/ha in data set [2] (0.25 kg/ha, scale 0 to 100) was found to be 98%; in data set [3] (0.25 kg/ha, scale 0 to 100) it was 98%. For the same molecule, the Herbicidal activity in data set [4] (setting [13]) was determined as 0; in data set [4] (setting [14]), 25; in data set [4] (setting [15]), 35; in [12] (0.25 kg/ha, scale 0 to 100), 98; in [6] (setting [18]), 0; in data set [6] (setting [17]) it was 5. The molecule also gave a Herbicidal activity in data set [6] (setting [16]) of 15.

Turning to `CN(c1c(Cl)ccc(C2=C(O)c3ncccc3CS2(=O)=O)c1C(F)(F)F)S(C)(=O)=O` [I-31, N-[6-chloro-3-(8-hydroxy-6,6-dioxo-5H-thiopyrano[4,3-b]pyridin-7-yl)-2-(trifluoromethyl)phenyl]-N-methyl-methanesulfonamide], the pest or weed control at 31 g/ha in [1] (application rate 0.031 kg/ha) was 70%. Also, the pest or weed control at 63 g/ha in [1] (application rate 0.063 kg/ha) stood at 90%; in data set [3] (application rate 0.063 kg/ha) it was 98%. The pest or weed control at 125 g/ha in data set [2] (application rate 0.125 kg/ha), in data set [3] (application rate 0.125 kg/ha) and in data set [9] (application rate 0.125 kg/ha) was 98% in each case. Further, the pest or weed control at 250 g/ha in [2] (application rate 0.25 kg/ha), in data set [3] (application rate 0.25 kg/ha) and in [9] (application rate 0.25 kg/ha) was 98% throughout. In addition, the Herbicidal activity in data set [12] (application rate 0.031 kg/ha) stood at 80; in [12] (application rate 0.063 kg/ha), 100; in data set [6] (setting [19]), 5.

For `CN(c1c(Cl)ccc(C2=C(O)c3ncc(F)cc3C(C)(C)S2(=O)=O)c1Cl)S(C)(=O)=O` [I-38, N-[2,6-dichloro-3-(3-fluoro-8-hydroxy-5,5-dimethyl-6,6-dioxo-thiopyrano[4,3-b]pyridin-7-yl)phenyl]-N-methyl-methanesulfonamide], the figures for the pest or weed control at 31 g/ha in [2] (application rate 0.031 kg/ha), in data set [3] (application rate 0.031 kg/ha) and in data set [9] (application rate 0.031 kg/ha) were 98%, 98% and 95%, respectively. In addition, the figures for the pest or weed control at 63 g/ha in data set [2] (application rate 0.063 kg/ha), in data set [3] (application rate 0.063 kg/ha) and in data set [9] (application rate 0.063 kg/ha) were 98%, 95% and 95%, respectively. Besides, the values for the pest or weed control at 125 g/ha in [2] (application rate 0.125 kg/ha), in [3] (application rate 0.125 kg/ha) and in [9] (application rate 0.125 kg/ha) were 98%, 98% and 100%, respectively. In addition, the Herbicidal activity in [4] (crop ORYSA (rice), application rate 0.031 kg/ha) turned out to be 35; in data set [5] (application rate 0.125 kg/ha) it was 100; in [6] (setting [19]), 0; in [6] (crop ZEAMX (corn, maize), application rate 0.063 kg/ha), 0; in data set [6] (crop ZEAMX (corn, maize), application rate 0.125 kg/ha) it was 15.
